Data taken from the NIST ThermoML archive (doi:10.1021/je7004038).
Numbers after ± are expanded uncertainties.

Details: Crystal; visual observation

Structure (SMILES): O=[N+]([O-])/N=C1\NCCN1Cc1ccc(Cl)nc1 [imidacloprid]
- Normal melting temperature: 144.00 ± 0.68 °C
